Experimental data published in PubChem BioAssay (NCI).
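Grown in 96-well plates, cells were treated for 48 hours with each compound at five concentrations. Insufficient inhibition: endpoint recorded as highest concentration tested. At the TGI there is no net growth.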

Columns and labels:
Test in all cases: inhibition of tumour cell growth, NCI panel, 48 h
[1] = system: LOX IMVI melanoma
[2] = system: SNB-75 CNS
[3] = system: A549 NSCLC
[4] = system: HT29 colon
[5] = system: OVCAR-4 ovarian
[6] = system: DMS 114 small cell lung
[7] = system: HOP-62 NSCLC
[8] = system: M19-MEL melanoma
[9] = system: NCI-H23 lung
[10] = system: CCRF-CEM leukemia
[11] = system: OVCAR-5 ovarian
[12] = system: DU-145 prostate
[13] = system: CAKI-1 renal
[14] = system: NCI-H522 lung

## OC1=CN=C(C2CC2)Oc2ccccc21
[1]
  TGI: > 100 µM
[2]
  TGI: > 100 µM
[3]
  TGI: > 100 µM
[4]
  TGI: > 100 µM
[5]
  TGI: > 100 µM
[6]
  TGI: > 100 µM
[7]
  TGI: > 100 µM
[8]
  TGI: > 100 µM
[9]
  TGI: > 100 µM
[10]
  TGI: > 100 µM

## CNC(=O)C1CCC(=O)N1CN(C(C)=O)c1ccccc1 (configuration not stated)
[1]
  TGI: > 100 µM
[2]
  TGI: > 100 µM
[3]
  TGI: > 100 µM
[11]
  TGI: > 100 µM
[12]
  TGI: > 100 µM
[4]
  TGI: > 100 µM
[5]
  TGI: > 100 µM
[7]
  TGI: > 100 µM
[13]
  TGI: > 100 µM
[9]
  TGI: > 100 µM
[14]
  TGI: > 100 µM
[10]
  TGI: 0.426 µM

## S=C1NCCN1C(=S)NC1CCCCC1
[1]
  TGI: > 100 µM
[2]
  TGI: 72.1 µM
[3]
  TGI: 99.1 µM
[11]
  TGI: > 100 µM
[12]
  TGI: > 100 µM
[4]
  TGI: 57.2 µM
[5]
  TGI: 45.5 µM
[7]
  TGI: > 100 µM
[13]
  TGI: 74.5 µM
[9]
  TGI: 59.2 µM
[14]
  TGI: 69 µM
[10]
  TGI: > 100 µM

## Cc1ccccc1C(=O)NC(O)(C(F)(F)F)C(F)(F)F
[1]
  TGI: > 100 µM
[2]
  TGI: 3.17 µM
[3]
  TGI: > 100 µM
[11]
  TGI: > 100 µM
[12]
  TGI: > 100 µM
[4]
  TGI: > 100 µM
[5]
  TGI: > 100 µM
[7]
  TGI: > 100 µM
[13]
  TGI: > 100 µM
[9]
  TGI: > 100 µM
[14]
  TGI: > 100 µM
[10]
  TGI: > 100 µM

## CC(C)[Si](Oc1cc2c3c(ccc2c(O)c1[C@@H](C)CO[Si](C)(C)C(C)(C)C)C(C)(C)CCC3)(C(C)C)C(C)C
[1]
  TGI: > 100 µM
[2]
  TGI: > 100 µM
[3]
  TGI: > 100 µM
[11]
  TGI: > 100 µM
[12]
  TGI: > 100 µM
[4]
  TGI: > 100 µM
[5]
  TGI: > 100 µM
[7]
  TGI: > 100 µM
[13]
  TGI: > 100 µM
[9]
  TGI: > 100 µM
[14]
  TGI: > 100 µM
[10]
  TGI: > 100 µM

## Cc1ccc(S(=O)(=O)C(C#N)c2nc3ccccc3nc2N2CCOCC2)cc1 (configuration not stated)
[1]
  TGI: 57.3 µM
[2]
  TGI: > 100 µM
[3]
  TGI: > 100 µM
[11]
  TGI: > 100 µM
[5]
  TGI: 37.4 µM
[6]
  TGI: 49.5 µM
[7]
  TGI: 44.6 µM
[8]
  TGI: 81.6 µM
[13]
  TGI: 65 µM
[9]
  TGI: 55.1 µM
[14]
  TGI: 37.3 µM
[10]
  TGI: 62.2 µM

## CN(C)C=NCc1ccc2c(c1)OCO2
[1]
  TGI: > 100 µM
[2]
  TGI: > 100 µM
[3]
  TGI: > 100 µM
[11]
  TGI: > 100 µM
[12]
  TGI: > 100 µM
[4]
  TGI: > 100 µM
[5]
  TGI: > 100 µM
[7]
  TGI: > 100 µM
[13]
  TGI: > 100 µM
[9]
  TGI: > 100 µM
[14]
  TGI: > 100 µM
[10]
  TGI: > 100 µM

## C=CC(Br)(CBr)CCC(Br)C(C)(C)Br (configuration not stated)
[1]
  TGI: 25.5 µM
[2]
  TGI: 22.3 µM
[3]
  TGI: 29.8 µM
[11]
  TGI: 33.2 µM
[4]
  TGI: 26.8 µM
[5]
  TGI: 32.3 µM
[6]
  TGI: 24.6 µM
[7]
  TGI: 36.1 µM
[8]
  TGI: 27.4 µM
[13]
  TGI: 37.4 µM
[9]
  TGI: 30.3 µM
[14]
  TGI: 30.1 µM

## Cc1no[n+]([O-])c1/C=N/NS(=O)(=O)c1ccccc1
[3]
  TGI: > 100 µM
[11]
  TGI: > 100 µM
[4]
  TGI: > 100 µM
[5]
  TGI: > 100 µM
[6]
  TGI: > 100 µM
[7]
  TGI: > 100 µM
[8]
  TGI: > 100 µM
[13]
  TGI: > 100 µM
[9]
  TGI: > 100 µM
[14]
  TGI: > 100 µM

## [O-]/N=N\c1on[n+](CCc2ccccc2)c1Cc1c(/N=N/[O-])on[n+]1CCc1ccccc1
[1]
  TGI: > 100 µM
[2]
  TGI: 40.2 µM
[3]
  TGI: > 100 µM
[11]
  TGI: > 100 µM
[12]
  TGI: > 100 µM
[4]
  TGI: > 100 µM
[5]
  TGI: 36.7 µM
[7]
  TGI: 48.3 µM
[13]
  TGI: > 100 µM
[9]
  TGI: 61.3 µM
[14]
  TGI: 43.8 µM
[10]
  TGI: > 100 µM

## Cc1ccc(N(C)S(=O)(=O)c2ccccc2)cc1
[1]
  TGI: > 100 µM
[2]
  TGI: > 100 µM
[3]
  TGI: > 100 µM
[11]
  TGI: > 100 µM
[12]
  TGI: > 100 µM
[4]
  TGI: > 100 µM
[5]
  TGI: > 100 µM
[7]
  TGI: > 100 µM
[13]
  TGI: > 100 µM
[9]
  TGI: > 100 µM
[14]
  TGI: > 100 µM
[10]
  TGI: > 100 µM

## Nc1nc(Cl)cc(NCC2(CO)CC(c3ccccc3)C2)n1 (configuration not stated)
[1]
  TGI: > 100 µM
[2]
  TGI: > 100 µM
[3]
  TGI: > 100 µM
[11]
  TGI: > 100 µM
[12]
  TGI: > 100 µM
[4]
  TGI: > 100 µM
[5]
  TGI: > 100 µM
[7]
  TGI: > 100 µM
[13]
  TGI: > 100 µM
[9]
  TGI: > 100 µM
[14]
  TGI: > 100 µM
[10]
  TGI: > 100 µM

## COC(=O)C(=O)c1cc2ccccc2n1S(=O)(=O)c1ccccc1
[1]
  TGI: > 100 µM
[2]
  TGI: > 100 µM
[3]
  TGI: > 100 µM
[11]
  TGI: > 100 µM
[12]
  TGI: > 100 µM
[4]
  TGI: > 100 µM
[5]
  TGI: > 100 µM
[7]
  TGI: > 100 µM
[13]
  TGI: > 100 µM
[9]
  TGI: > 100 µM
[14]
  TGI: > 100 µM
[10]
  TGI: > 100 µM

## Cc1cc(O)c2c(c1)C(=O)C=C(Br)C2=O
[1]
  TGI: 25.4 µM
[2]
  TGI: 31 µM
[3]
  TGI: > 60.5 µM
[11]
  TGI: 29.7 µM
[12]
  TGI: 17 µM
[4]
  TGI: 40.3 µM
[5]
  TGI: 24 µM
[7]
  TGI: > 100 µM
[13]
  TGI: 27.7 µM
[9]
  TGI: 35.5 µM
[14]
  TGI: 7.34 µM
[10]
  TGI: 4.1 µM

## O=CN1CCN(C(=O)c2ccc(Cl)cc2)C1=S
[1]
  TGI: 24.5 µM
[2]
  TGI: 36.8 µM
[3]
  TGI: 28 µM
[11]
  TGI: 35.6 µM
[12]
  TGI: 29.1 µM
[4]
  TGI: 33 µM
[5]
  TGI: 35.5 µM
[7]
  TGI: 44 µM
[13]
  TGI: 27 µM
[9]
  TGI: 53.6 µM
[14]
  TGI: 31.2 µM
[10]
  TGI: 37.4 µM

## COC(=O)CCN1CCN(CCO)CC1C (configuration not stated)
[1]
  TGI: > 10 µM
[2]
  TGI: > 10 µM
[3]
  TGI: > 10 µM
[12]
  TGI: > 10 µM
[4]
  TGI: > 10 µM
[5]
  TGI: > 10 µM
[7]
  TGI: > 10 µM
[13]
  TGI: > 10 µM
[9]
  TGI: > 10 µM
[14]
  TGI: > 10 µM
[10]
  TGI: > 10 µM

## O=C(OCC(Cl)(Cl)Cl)N1CC[C@@H](C2CCCCC2)C1
[1]
  TGI: > 100 µM
[2]
  TGI: 48.7 µM
[3]
  TGI: > 100 µM
[11]
  TGI: 50.6 µM
[12]
  TGI: > 100 µM
[5]
  TGI: 42.2 µM
[7]
  TGI: 38 µM
[13]
  TGI: 76.5 µM
[9]
  TGI: 64.2 µM
[14]
  TGI: 43.1 µM
[10]
  TGI: 46.7 µM

## CCOC(=O)c1ncn2c1[nH]c(=O)c1ccccc12
[1]
  TGI: > 100 µM
[2]
  TGI: > 100 µM
[3]
  TGI: > 100 µM
[11]
  TGI: > 100 µM
[4]
  TGI: > 100 µM
[5]
  TGI: > 100 µM
[6]
  TGI: > 100 µM
[8]
  TGI: > 100 µM
[9]
  TGI: > 100 µM
[14]
  TGI: > 100 µM
[10]
  TGI: > 100 µM

## CC(=O)C(CN(C)Cc1ccccc1)C(c1ccccc1)c1c(O)c2ccccc2oc1=O (configuration not stated)
[1]
  TGI: > 100 µM
[2]
  TGI: > 100 µM
[3]
  TGI: > 100 µM
[11]
  TGI: > 100 µM
[4]
  TGI: > 100 µM
[5]
  TGI: > 100 µM
[6]
  TGI: > 100 µM
[7]
  TGI: > 100 µM
[8]
  TGI: > 100 µM
[13]
  TGI: > 100 µM
[9]
  TGI: > 100 µM
[14]
  TGI: > 100 µM
[10]
  TGI: > 100 µM
